PubChem BioAssay (NCI)
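Five concentrations, 48 hours, 96-well plates. GI50 is the concentration that inhibits growth by half. TGI: concentration producing complete growth inhibition.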

Columns and labels:
Assay in all cases: DTP human tumour cell line panel, 48 h
DU-145 prostate = system: DU-145 prostate
SK-MEL-2 melanoma = system: SK-MEL-2 melanoma
M14 melanoma = system: M14 melanoma
CAKI-1 renal = system: CAKI-1 renal
HCT-116 colon = system: HCT-116 colon
T-47D breast = system: T-47D breast
NCI-H522 lung = system: NCI-H522 lung
A498 renal = system: A498 renal
SN12C renal = system: SN12C renal
U251 CNS = system: U251 CNS
SR leukemia = system: SR leukemia
OVCAR-4 ovarian = system: OVCAR-4 ovarian
MDA-MB-231 breast = system: MDA-MB-231 breast
HCC-2998 colon = system: HCC-2998 colon
SK-OV-3 ovarian = system: SK-OV-3 ovarian
SNB-75 CNS = system: SNB-75 CNS
786-0 renal = system: 786-0 renal
HT29 colon = system: HT29 colon
OVCAR-3 ovarian = system: OVCAR-3 ovarian
NCI/ADR-RES ovarian = system: NCI/ADR-RES ovarian
RXF 393 renal = system: RXF 393 renal
HOP-92 NSCLC = system: HOP-92 NSCLC
EKVX NSCLC = system: EKVX NSCLC
TK-10 renal = system: TK-10 renal
MOLT-4 leukemia = system: MOLT-4 leukemia
NCI-H460 lung = system: NCI-H460 lung
HOP-62 NSCLC = system: HOP-62 NSCLC
MCF7 breast = system: MCF7 breast
LOX IMVI melanoma = system: LOX IMVI melanoma
SF-295 CNS = system: SF-295 CNS
ACHN renal = system: ACHN renal
MALME-3M melanoma = system: MALME-3M melanoma
SW-620 colon = system: SW-620 colon
NCI-H23 lung = system: NCI-H23 lung
COLO 205 colon = system: COLO 205 colon
OVCAR-5 ovarian = system: OVCAR-5 ovarian
KM12 colon = system: KM12 colon
SF-268 CNS = system: SF-268 CNS
MDA-MB-435 = system: MDA-MB-435
BT-549 breast = system: BT-549 breast
A549 NSCLC = system: A549 NSCLC
PC-3 prostate = system: PC-3 prostate
HS 578T breast = system: HS 578T breast
RPMI-8226 leukemia = system: RPMI-8226 leukemia
HCT-15 colon = system: HCT-15 colon
UACC-62 melanoma = system: UACC-62 melanoma
UACC-257 melanoma = system: UACC-257 melanoma
OVCAR-8 ovarian = system: OVCAR-8 ovarian
HL-60(TB) leukemia = system: HL-60(TB) leukemia
K-562 leukemia = system: K-562 leukemia
NCI-H226 lung = system: NCI-H226 lung
UO-31 renal = system: UO-31 renal
CCRF-CEM leukemia = system: CCRF-CEM leukemia
SNB-19 CNS = system: SNB-19 CNS
SK-MEL-28 melanoma = system: SK-MEL-28 melanoma
IGROV1 ovarian = system: IGROV1 ovarian
SK-MEL-5 melanoma = system: SK-MEL-5 melanoma
SF-539 CNS = system: SF-539 CNS
MDA-N = system: MDA-N

For `COc1ccc2nc3cccc([N+](=O)[O-])c3c(NCCNCCO)c2c1`, the GI50 (DU-145 prostate) was 10.4 nM, the TGI (DU-145 prostate) was 746 nM and the GI50 (SK-MEL-2 melanoma) was 16.7 nM. For the same molecule, the TGI (SK-MEL-2 melanoma) was 34.4 nM, the GI50 (M14 melanoma) was 19.8 nM and the TGI (M14 melanoma) was 53.4 nM. It also gave a GI50 (CAKI-1 renal) of 39.6 nM, a TGI (CAKI-1 renal) of 502 nM and a GI50 (HCT-116 colon) of 19.6 nM. It also gave a TGI (HCT-116 colon) of 753 nM, a GI50 (T-47D breast) of 81.3 nM and a TGI (T-47D breast) of 619 nM. It also gave a TGI (NCI-H522 lung) of 14.6 nM, a GI50 (A498 renal) of 26.2 nM and a TGI (A498 renal) of 70.9 nM. For the same molecule, the GI50 (SN12C renal) was 46.8 nM, the TGI (SN12C renal) was 306 nM and the GI50 (U251 CNS) was 22.6 nM. It also gave a TGI (U251 CNS) of 155 nM, a GI50 (SR leukemia) of 16.7 nM and a TGI (SR leukemia) of 3280 nM. For the same molecule, the GI50 (OVCAR-4 ovarian) was 19.9 nM, the TGI (OVCAR-4 ovarian) was 51.5 nM and the GI50 (MDA-MB-231 breast) was 411 nM. The TGI (MDA-MB-231 breast) was 8250 nM, the GI50 (HCC-2998 colon) was 41.7 nM and the TGI (HCC-2998 colon) was 206 nM. The GI50 (SK-OV-3 ovarian) was 45.9 nM, the TGI (SK-OV-3 ovarian) was 388 nM and the GI50 (SNB-75 CNS) was 36.7 nM. It also gave a TGI (SNB-75 CNS) of 151 nM, a GI50 (786-0 renal) of 21.2 nM and a TGI (786-0 renal) of 102 nM. The GI50 (HT29 colon) was 12 nM, the TGI (HT29 colon) was 99.1 nM and the GI50 (OVCAR-3 ovarian) was 26.5 nM. For the same molecule, the TGI (OVCAR-3 ovarian) was 66.7 nM, the GI50 (NCI/ADR-RES ovarian) was 660 nM and the TGI (NCI/ADR-RES ovarian) was 6700 nM. It also gave a GI50 (RXF 393 renal) of 18.7 nM, a TGI (RXF 393 renal) of 47.4 nM and a GI50 (HOP-92 NSCLC) of 23 nM. For the same molecule, the TGI (HOP-92 NSCLC) was 64.9 nM, the GI50 (EKVX NSCLC) was 104 nM and the TGI (EKVX NSCLC) was 426 nM. The GI50 (TK-10 renal) was 29.1 nM, the TGI (TK-10 renal) was 272 nM and the GI50 (MOLT-4 leukemia) was 20.7 nM. The TGI (MOLT-4 leukemia) was 229 nM, the GI50 (NCI-H460 lung) was 11.4 nM and the TGI (NCI-H460 lung) was 102 nM. The GI50 (HOP-62 NSCLC) was 35.2 nM, the TGI (HOP-62 NSCLC) was 169 nM and the GI50 (MCF7 breast) was 10.2 nM. For the same molecule, the TGI (MCF7 breast) was 100 nM, the GI50 (LOX IMVI melanoma) was 18.4 nM and the TGI (LOX IMVI melanoma) was 72.1 nM. The GI50 (SF-295 CNS) was 23.8 nM, the TGI (SF-295 CNS) was 188 nM and the GI50 (ACHN renal) was 15.9 nM. The TGI (ACHN renal) was 70.1 nM, the GI50 (MALME-3M melanoma) was 25 nM and the TGI (MALME-3M melanoma) was 124 nM. The GI50 (SW-620 colon) was 19.8 nM, the TGI (SW-620 colon) was 610 nM and the GI50 (NCI-H23 lung) was 104 nM. The TGI (NCI-H23 lung) was 2700 nM, the GI50 (COLO 205 colon) was 13.7 nM and the TGI (COLO 205 colon) was 54.5 nM. The GI50 (OVCAR-5 ovarian) was 32.7 nM, the TGI (OVCAR-5 ovarian) was 185 nM and the GI50 (KM12 colon) was 60 nM. The TGI (KM12 colon) was 250 nM, the GI50 (SF-268 CNS) was 18.4 nM and the TGI (SF-268 CNS) was 92.5 nM. The GI50 (MDA-MB-435) was 25.6 nM, the TGI (MDA-MB-435) was 90.3 nM and the GI50 (BT-549 breast) was 51 nM. It also gave a TGI (BT-549 breast) of 173 nM, a GI50 (A549 NSCLC) of 27.4 nM and a TGI (A549 NSCLC) of 119 nM. The TGI (PC-3 prostate) was 130 nM, the GI50 (HS 578T breast) was 50.1 nM and the TGI (HS 578T breast) was 361 nM. For the same molecule, the GI50 (RPMI-8226 leukemia) was 19.8 nM, the TGI (RPMI-8226 leukemia) was 111 nM and the GI50 (HCT-15 colon) was 206 nM. The GI50 (UACC-62 melanoma) was 16.2 nM, the TGI (UACC-62 melanoma) was 39.7 nM and the GI50 (UACC-257 melanoma) was 51.8 nM. For the same molecule, the TGI (UACC-257 melanoma) was 189 nM, the GI50 (OVCAR-8 ovarian) was 13 nM and the TGI (OVCAR-8 ovarian) was 151 nM. It also gave a GI50 (HL-60(TB) leukemia) of 21.2 nM, a TGI (HL-60(TB) leukemia) of 4140 nM and a GI50 (K-562 leukemia) of 15.3 nM. For the same molecule, the TGI (K-562 leukemia) was 121 nM, the GI50 (NCI-H226 lung) was 52.2 nM and the TGI (NCI-H226 lung) was 340 nM. For the same molecule, the GI50 (UO-31 renal) was 106 nM, the TGI (UO-31 renal) was 336 nM and the GI50 (CCRF-CEM leukemia) was 24 nM. For the same molecule, the TGI (CCRF-CEM leukemia) was 173 nM, the GI50 (SNB-19 CNS) was 130 nM and the TGI (SNB-19 CNS) was 636 nM. The GI50 (SK-MEL-28 melanoma) was 102 nM, the TGI (SK-MEL-28 melanoma) was 352 nM and the GI50 (IGROV1 ovarian) was 17.3 nM. The TGI (IGROV1 ovarian) was 71.7 nM, the GI50 (SK-MEL-5 melanoma) was 11.3 nM and the TGI (SK-MEL-5 melanoma) was 25.8 nM. The GI50 (SF-539 CNS) was 43.3 nM, the TGI (SF-539 CNS) was 186 nM and the GI50 (MDA-N) was 37 nM. The TGI (MDA-N) was 156 nM.
In the case of `O=S(/C=C/C=C/S(=O)(=O)c1ccccc1)c1ccccc1` (centres undefined), the TGI (DU-145 prostate) is reported as > 7000 nM, the TGI (SK-MEL-2 melanoma) is reported as 4200 nM and the TGI (M14 melanoma) is reported as 1560 nM. For the same molecule, the TGI (CAKI-1 renal) was 3430 nM, the TGI (HCT-116 colon) was 2840 nM and the TGI (T-47D breast) was > 4970 nM. The TGI (NCI-H522 lung) was 3170 nM, the TGI (A498 renal) was > 10000 nM and the TGI (SN12C renal) was 3940 nM. The TGI (U251 CNS) was > 10000 nM, the TGI (SR leukemia) was 3070 nM and the TGI (OVCAR-4 ovarian) was 4330 nM. For the same molecule, the TGI (MDA-MB-231 breast) was 8800 nM, the TGI (HCC-2998 colon) was > 10000 nM and the TGI (SK-OV-3 ovarian) was > 10000 nM. The TGI (SNB-75 CNS) was > 10000 nM, the TGI (786-0 renal) was 1610 nM and the TGI (HT29 colon) was > 10000 nM. For the same molecule, the TGI (OVCAR-3 ovarian) was 3440 nM, the TGI (NCI/ADR-RES ovarian) was 5020 nM and the TGI (RXF 393 renal) was 3310 nM. For the same molecule, the TGI (HOP-92 NSCLC) was 4870 nM, the TGI (EKVX NSCLC) was > 10000 nM and the TGI (TK-10 renal) was 6080 nM. For the same molecule, the TGI (MOLT-4 leukemia) was 4110 nM, the TGI (NCI-H460 lung) was > 10000 nM and the TGI (HOP-62 NSCLC) was > 10000 nM. The TGI (MCF7 breast) was 3170 nM, the TGI (LOX IMVI melanoma) was > 3890 nM and the TGI (SF-295 CNS) was > 10000 nM. The TGI (ACHN renal) was > 9310 nM, the TGI (MALME-3M melanoma) was 4220 nM and the TGI (SW-620 colon) was 2670 nM. The TGI (NCI-H23 lung) was 4390 nM, the TGI (COLO 205 colon) was 3480 nM and the TGI (OVCAR-5 ovarian) was > 10000 nM. For the same molecule, the TGI (KM12 colon) was > 4880 nM, the TGI (SF-268 CNS) was > 9080 nM and the TGI (MDA-MB-435) was 5960 nM. The TGI (BT-549 breast) was > 10000 nM, the TGI (A549 NSCLC) was > 10000 nM and the TGI (PC-3 prostate) was > 10000 nM. The TGI (HS 578T breast) was > 10000 nM, the TGI (RPMI-8226 leukemia) was 3060 nM and the TGI (HCT-15 colon) was 3970 nM. For the same molecule, the TGI (UACC-62 melanoma) was > 7770 nM, the TGI (UACC-257 melanoma) was 3770 nM and the TGI (OVCAR-8 ovarian) was 3700 nM. The TGI (HL-60(TB) leukemia) was 909 nM, the TGI (K-562 leukemia) was 2830 nM and the TGI (NCI-H226 lung) was > 10000 nM. For the same molecule, the TGI (UO-31 renal) was 5640 nM, the TGI (CCRF-CEM leukemia) was 2270 nM and the TGI (SNB-19 CNS) was > 10000 nM. For the same molecule, the TGI (SK-MEL-28 melanoma) was 4350 nM, the TGI (IGROV1 ovarian) was > 10000 nM and the TGI (SK-MEL-5 melanoma) was 3910 nM. For the same molecule, the TGI (SF-539 CNS) was > 10000 nM and the TGI (MDA-N) was > 5510 nM.
